Reference: ChEMBL document CHEMBL5634160, “Synthesis, biological evaluation and action mechanism of 7H-[1,2,4] triazolo [3,4-b] [1,3,4] thiadiazine-phenylhydrazone derivatives as α-glucosidase inhibitors” (Eur J Med Chem, 2023)

Experiments:
Alpha-glucosidase = Alpha-glucosidase (Saccharomyces cerevisiae S288c, UniProt P53341+P38158+P07265); assay: Inhibition of Saccharomyces cerevisiae alpha-glucosidase using nitrophenol-alpha-D-glucopyranoside (pNPG) as substrate incubated for 15 mins; assay type: protein assay
[1] = test system: COc1cc(/C=N/Nc2nnc3n2N=C(c2ccccc2)CS3)cc(OC)c1O; assay: Mixed-type inhibition of Saccharomyces cerevisiae alpha-glucosidase using nitrophenol-alpha-D-glucopyranoside (pNPG) as substrate assessed as Vmax at 24 to 48 uM measured after 15 mins by Lineweaver-Burk plot analysis; assay type: protein assay; conditions: dose 24-48 µM

Sequence of Alpha-glucosidase (Saccharomyces cerevisiae S288c) (P07265 whole entry, looked up): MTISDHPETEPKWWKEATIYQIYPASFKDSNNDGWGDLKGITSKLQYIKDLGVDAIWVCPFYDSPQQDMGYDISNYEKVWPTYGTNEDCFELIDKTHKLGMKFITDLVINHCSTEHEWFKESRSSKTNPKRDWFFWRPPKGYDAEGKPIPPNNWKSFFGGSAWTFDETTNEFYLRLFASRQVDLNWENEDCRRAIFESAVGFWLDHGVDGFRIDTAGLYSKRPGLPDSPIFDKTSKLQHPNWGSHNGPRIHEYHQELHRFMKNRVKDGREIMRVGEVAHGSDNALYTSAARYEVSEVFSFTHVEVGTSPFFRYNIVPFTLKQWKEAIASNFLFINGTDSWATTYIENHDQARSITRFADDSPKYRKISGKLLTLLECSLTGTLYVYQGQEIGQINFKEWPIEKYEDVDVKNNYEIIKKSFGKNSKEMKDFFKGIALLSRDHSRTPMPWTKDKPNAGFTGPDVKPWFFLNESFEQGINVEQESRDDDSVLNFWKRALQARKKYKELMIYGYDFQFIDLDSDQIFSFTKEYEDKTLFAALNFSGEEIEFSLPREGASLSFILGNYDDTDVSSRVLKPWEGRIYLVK
Sequence of Alpha-glucosidase (Saccharomyces cerevisiae S288c) (P38158 whole entry, looked up): as the sequence (P07265 whole entry, looked up) above, with R273T, V305L counted along it
Sequence of Alpha-glucosidase (Saccharomyces cerevisiae S288c) (P53341 whole entry, looked up): as the sequence (P07265 whole entry, looked up) above, with R273T, F467L counted along it

IC50 (Alpha-glucosidase) | Compound | Vmax [1]
135.7 µM | Oc1cccc(/C=N/Nc2nnc3n2N=C(c2ccccc2)CS3)c1 | 
91.47 µM | COc1cc(/C=N/Nc2nnc3n2N=C(c2ccccc2)CS3)cc(OC)c1OC | 
35.58 µM | CN(C)c1ccc(/C=N/Nc2nnc3n2N=C(c2ccccc2)CS3)cc1 | 
140.2 µM | COc1ccc(/C=N/Nc2nnc3n2N=C(c2ccccc2)CS3)cc1OC | 
42.36 µM | Clc1cccc(/C=N/Nc2nnc3n2N=C(c2ccccc2)CS3)c1 | 

Further lines, the compound ahead of its results:

Compound | IC50 (Alpha-glucosidase) | Vmax [1]
Fc1ccccc1/C=N/Nc1nnc2n1N=C(c1ccccc1)CS2 | > 250 µM | 
Alpha-glucosidase (Saccharomyces cerevisiae S288c) (from UniProt P53341+P38158+P07265) |  | 0.07 µM/L.min
Brc1ccccc1/C=N/Nc1nnc2n1N=C(c1ccccc1)CS2 | 32.12 µM | 
